Source: patent publication US10500169B2, “Supression of IgE production by compounds derived from traditional chinese medicine” (Sean N. Parker Foundation, priority 2014, dated 2019)
≈ marks a conversion by molar mass, not a printed value.

Assays:
U266 cells [1] = assay: IgE production by U266 myeloma cells, ELISA of supernatants; type: cell-based, human; conditions: for IC50: 6 days culture, read-out: IC50 of inhibition of IgE production by U266 cells; for effect on IgE production by U266 cells (in words): different concentrations
Experimental: The IgE producing human U266 myeloma cell line (American Type Culture Collection; Rockville, Md.) has been used for screening pharmaceutical agents for IgE inhibitory effects, and thus this cell line was used to test the potential IgE inhibitory effects of herb extracts and purified compounds. Cells were cultured at 37° C. under 5% CO2 in complete media containing RPMI 1640 medium supplemented, 10% FBS, 1 mM sodium pyruvate, 1×10^-5 M β-ME and 0.5% penicillin-streptomycin. Cells were grown at an initial concentration of 2×10^5 cells/mL. FAHF-2 and B-FAHF-2, individual herb extracts and isolated compounds at different concentrations were added at day 0. Supernatants were harvested after 6 days culture, and IgE levels were determined by using an ELISA Kit (Mabtech Inc, OH). In each experiment, we run duplicate ELISA. In vitro experiments were repeated at least 3 times.
Human U266 myeloma cells (American Type Culture Collection; Rockville, Md.) were cultured in complete medium (RPMI 1640 medium supplemented, 10% FBS, 1 mM sodium pyruvate, 1×10^−5 M β-ME and 0.5% penicillin-streptomycin) at 37° C. under 5% CO2. Cells were grown at an initial concentration of 2×10^5 cells/mL with purpurin and alizarin from Rubia cordifolia L. at different concentrations (0.31, 0.62, 1.25, 2.5, 5 μg/mL), and with arctiin and arctigenin from Arctium lappa L. at different concentrations ([…]) for 6 days. The supernatants were harvested on day 6 for total IgE analysis using ELISA.

U266 cells [2] = assay: Cell viability of U266 cells, trypan blue exclusion; type: cell-based, human; conditions: at the concentrations tested
Experimental: Cell viability was evaluated using a trypan blue exclusion as previously described. Briefly, a 10 μl of cells suspension from each culture was mixed with equal volume of trypan blue dye. The mixture was loaded into a hemocytometer and cells were counted under a microscope. The percentage of viable cells was calculated as follows: Viable cells (%)=(total number of viable cells)/(total number of cells)×100.

human PBMCs = assay: IgE production by PBMCs from food allergic patients stimulated with rIL-4 and anti-CD40 mAb, ELISA; type: cell-based; conditions: Homo sapiens, PBMC, 240 h; 20 μg/mL, 10 days, rIL-4 100 ng/mL + anti-CD40 mAb 1 μg/mL
Experimental: PBMCs were isolated by Ficoll Hypaque (Pharmacia, Piscataway, N.J.) using density gradient centrifugation at 1800 RPM for 30 minutes, and washed 3 times in PBS. To determine the optimal stimulation of IgE production by PBMCs, PBMCs at 1.5×10^6 cells/mL were suspended in complete RPMI medium (200 μM L-glutamine, 1% penicillin/streptomycin, 25 mM HEPES, 10% heat inactivated fetal calf serum), and co-stimulated with human recombinant IL-4 (rIL-4) at 0.01 and 0.1 μg/mL (R&D Systems, Minneapolis, Minn., USA) and anti-CD40 monoclonal antibody (mAb) at […] (R&D) for 10 and 14 days. At the end of incubation, the supernatants were collected and IgE levels were analyzed using ELISA kit (Mabtech Inc, OH). Since PBMCs stimulated with 100 ng/mL rIL-4 and 1 μg/mL anti-CD40 mAb produced the highest level of IgE, we used this culture condition for the subsequent studies. PBMCs were stimulated with 100 ng/mL rIL-4 and 1 μg/mL anti-CD40 mAb and cultured in the presence or absence of 20 μg/mL of the two purified compounds for 10 days for screening active compounds, and at different concentrations (0.15, 0.31, 0.62, 1.25, 2.5, 5, 10 μg/mL) to examine dose responses for the effective compounds. IgE level was evaluated using ELISA. The percentage of IgE inhibition was calculated as follows: […]. In some cases if enough PBMCs were obtained, aliquots of PBMCs prepared from the same individuals were used for different experiments.

[3] = tested on: peanut allergic C3H/HeJ mice; assay: Peanut allergic mouse model, 400 μg of compound intragastrically daily for 4 weeks; type: in vivo; conditions: for body temperature following PN challenge: 30 minutes after oral challenge; for histamine level in plasma: week 15 post therapy challenge
Experimental: Freshly ground, whole roasted peanuts were homogenized in sterile PBS (Mediatech, VA) until a smooth suspension was obtained. Female C3H/HeJ mice were sensitized intragastrically (i.g.) with ground PN (10 mg/mouse) and cholera toxin (20 μg), on three consecutive days at week 0, and once a week for 5 weeks, and boosted at weeks 6 and 8 with 50 mg/mouse of PN and cholera toxin (20 μg) (FIG. 37A) as previous described^(40). Mice were intragastrically administered with 400 μg of three different active compounds (arctiin and arctigenin from Arctium lappa L., and 1,3-Dihydroxyanthraquinone from Rubia cordifolia L.) daily 24 h after the week 8 boosting and under this treatment for 4 weeks. Eight PN sensitized/boosted mice receiving 0.5 ml of 0.1% DMSO in water twice daily for the same period of treatment time as sham control mice for this experiment.
Anaphylactic symptoms were evaluated 30 min after challenge dose by two investigators using a scoring system described previously: […]; 1, scratching and rubbing around the snout and head; 2, puffiness around the eyes and mouth, pilar erection and reduced activity with an increased respiratory rate; 3, wheezing, labored respiration and cyanosis around the mouth; 4, no activity after prodding, or tremors, and convulsion; 5, death due to anaphylaxis.
To test the IgE inhibition effect of arctiin, arctigenin, and 1,3-dihydroxyanthraquinone in vivo, we treated peanut allergic mice with 400 μg of each active compound daily for four weeks, as shown in FIG. 37A.^(2)

[4] = tested on: peanut sensitized C3H/HeJ Mice; assay: Peanut allergic mouse model, 1,3-Dihydroxyanthraquinone 200 μg per mouse per day for seven weeks; type: in vivo
Experimental: FIG. 10 illustrates the in vivo experiment protocol. C3H/HeJ Mice were orally sensitized with 10 mg peanut and […] weekly for 5 weeks as described in methods. At weeks 6, 7 and 8, mice were boosted with 50 mg peanut mixed with cholera toxin. Seven weeks of 1,3-Dihydroxyanthraquinone (200 μg per mouse per day) treatment was started at W6. Mice were challenged with PN at week 13 and again at week 18. Mice were sacrificed 48 hours after last challenge.

peanut allergy subjects = conditions: cited from earlier work
[5] = tested on: peanut-allergic patients with high levels of IgE; conditions: cited from earlier work

Compound: O=C1c2ccccc2C(=O)c2c(O)c(O)cc(O)c21 [purpurin]
- IC50 (U266 cells [1]; Homo sapiens, U-266, 144 h): 0.353 µg/mL (≈ 1.38 µM)
- effect on IgE production by U266 cells (in words) (U266 cells [1]; 6 days): inhibited the IgE production in a dose-dependent manner

Compound: O=C1c2ccccc2C(=O)c2c1ccc(O)c2O [alizarin]
- IC50 (U266 cells [1]; Homo sapiens, U-266, 144 h): 0.762 µg/mL (≈ 3.17 µM)
- effect on IgE production by U266 cells (in words) (U266 cells [1]; 6 days): inhibited the IgE production in a dose-dependent manner

Compound: CC1(C)O[C@H]2CC(=O)OC[C@]23[C@H]2CC[C@@]4(C)[C@H](c5ccoc5)OC(=O)[C@H]5O[C@]54[C@]2(C)C(=O)C[C@@H]13 [limonin]
- inhibition at 20 µg/mL (U266 cells [1]; Homo sapiens, U-266, 144 h, 20 μg/mL, 6 days): 35.1%
- effect on IgE production by U266 cells (in words) (U266 cells [1]; 6 days): mild reduction of IgE production
- cell viability of U266 cells (U266 cells [2]): no toxicity
- inhibition at 20 µg/mL (human PBMCs): 33.9%

Compound: COc1ccc(C[C@H]2COC(=O)[C@@H]2Cc2ccc(O[C@@H]3O[C@H](CO)[C@@H](O)[C@H](O)[C@H]3O)c(OC)c2)cc1OC [arctiin]
- effect on IgE production by U266 cells (in words) (U266 cells [1]; 6 days): inhibited the IgE production by U266 in dose-dependent manner

Compound: COc1cc(C[C@H]2C(=O)OC[C@@H]2Cc2ccc(OC)c(OC)c2)ccc1O [arctigenin]
- effect on IgE production by U266 cells (in words) (U266 cells [1]; 6 days): inhibited the IgE production by U266 in dose-dependent manner
- protection against acute peanut induced anaphylaxis ([3]; 400 μg daily for four weeks): protected against the acute anaphylaxis
- body temperature following PN challenge [3]: normal body temperatures
- histamine level in plasma ([3]; vs sham): significantly decreased

Compound: O=C1c2ccccc2C(=O)c2c(O)cc(O)cc21 [1,3-Dihydroxyanthraquinone]
- effect on IgE production by U266 cells (in words) (U266 cells [1]; 6 days): dose-dependent inhibition
- symptom scores following peanut challenge ([4]; vs sham): significantly weaker reactions
- Peanut-Specific IgE levels ([4]; weeks 12 and 16): markedly reduced
- protection against acute peanut induced anaphylaxis ([3]; 400 μg daily for four weeks): protected against the acute anaphylaxis
- median anaphylactic symptom score ([3]; 400 μg daily for four weeks, vs sham): significant lower
- body temperature following PN challenge [3]: normal body temperatures
- histamine level in plasma ([3]; vs sham): significantly decreased

Compound: omalizumab: anti-IgE antibody (Xolair, Genentech)
- peanut tolerability in oral food challenge (peanut allergy subjects; post-therapy (24-week), vs placebo): greater shift in peanut tolerability
- serum peanut specific IgE (peanut allergy subjects; post-therapy): reduction of serum peanut specific IgE
- subjects tolerating 4000 mg of peanut flour ([5]; after 7-12 weeks): Twelve of thirteen
- subjects tolerating a cumulative dose of 992 mg peanut flour ([5]; first day): All thirteen
- patients requiring epinephrine ([5]; in vivo): 2 patients
